The experiment has as its target T1, PD-1-Ig binding to PD-L1-TVMV-His (PD-L1-His) (Homo sapiens, UniProt Q9NZQ7).
T1 construct: hPDL1(19-239)-TVMV-His; made in house; host or cells: HEK293T
Put plainly: PD-1/PD-L1 Homogenous Time-Resolved Fluorescence (HTRF) binding assay. As to conditions: range class; PD-L1-His 10 nM, PD-1-Ig 20 nM. An excerpt: Methods for Testing the Ability of Macrocyclic Peptides to Compete for the Binding of Pd-1 to Pd-L1 Using Homogenous Time-Resolved Fluorescence (HTRF) Binding Assays
The ability of the macrocyclic peptides of the present disclosure to bind to PD-L1 was investigated using a PD-1/PD-L1 Homogenous Time-Resolved Fluorescence (HTRF) binding assay.
Homogenous Time-Resolved Fluorescence (HTRF) Assays of Binding of Soluble PD-1 to Soluble PD-L1. Soluble PD-1 and soluble PD-L1 refers to proteins with carboxyl-end truncations that remove the transmembrane-spanning regions and are fused to heterologous sequences, specifically the Fc portion of the human immunoglobuling G sequence (Ig) or the hexahistidine epitope tag (His). All binding studies were performed in an HTRF assay buffer consisting of dPBS supplemented with 0.1% (w/v) bovine serum albumin and 0.05% (v/v) Tween-20. For the PD-1-Ig/PD-L1-His binding assay, inhibitors were pre-incubated with PD-L1-His (10 nM final) for 15 m in 4 μl of assay buffer, followed by addition of PD-1-Ig (20 nM final) in 1 μl of assay buffer and further incubation for 15 m. PD-L1 fusion proteins from either human, cynomologous macaques, mouse, or other species were used. HTRF detection was achieved using europium crypate-labeled anti-Ig monoclonal antibody (1 nM final) and allophycocyanin (APC) labeled anti-His monoclonal antibody (20 nM final). Antibodies were diluted in HTRF detection buffer and 5 μl was dispensed on top of binding reaction. The reaction was allowed to equilibrate for 30 minutes and signal (665 nm/620 nm ratio) was obtained using an EnVision fluorometer. Additional binding assays were established between PD-1-Ig/PD-L2-His (20 and 5 nM, respectively), CD80-His/PD-L1-Ig (100 and 10 nM, respectively) and CD80-His/CTLA4-Ig (10 and 5 nM, respectively). Binding/competition studies between biotinylated Compound No. 71 and human PD-L1-His were performed as follows. Macrocyclic peptide inhibitors were pre-incubated with PD-L1-His (10 nM final) for 60 minutes in 4 μl of assay buffer followed by addition of biotinylated Compound No. 71 (0.5 nM final) in 1 μl of assay buffer. Binding was allowed to equilibrate for 30 minutes followed by addition of europium crypated labeled Streptavidin (2.5 pM final) and APC-labeled anti-His (20 nM final) in 5 μl of HTRF buffer. The reaction was allowed to equilibrate for 30 m and signal (665 nm/620 nm ratio) was obtained using an EnVision fluorometer.
Recombinant Proteins. Carboxyl-truncated human PD-1 (amino acids 25-167) with a C-terminal human Ig epitope tag [hPD-1 (25-167)-3S-IG] and human PD-L1 (amino acids 18-239) with a C-terminal His epitope tag [hPD-L1(19-239)-tobacco vein mottling virus protease cleavage site (TVMV)-His] were expressed in HEK293T cells and purified sequentially by recombinant Protein A affinity chromatography and size exclusion chromatography. Human PD-L2-His (Sino Biologicals), CD80-His (Sino Biologicals), CTLA4-Ig (RnD Systems) were all obtained through commercial sources.
Ranges are as follows: A=0.10-10 μM; B=0.01-0.099 μM; C=0.005-0.0099 μM.
For orientation: Time-resolved FRET reads energy transfer from a long-lived donor to a nearby acceptor.

The record followed here is patent US9861680B2, “Immunomodulators” (BRISTOL-MYERS SQUIBB COMPANY, priority 2014, dated 2018).

The term IC50 denotes the concentration that inhibits the measured activity by half. Read a high IC50 as weaker potency in that assay.

Numbered stars: 1 amine (or outer) side, 2 acyl side, 3 side chain; on linkers, the order of the positions; unused ones are H or OH. Bridge positions count the residues as written; N and C are the ends. Square brackets hold non-standard residues; d marks the D form. Peptide text beside a SMILES is read from it. X4 = NC(=O)C[C@H](N[*:1])C(=O)C1CCC[C@H]1C(=O)[*:2]; X8 = C[C@@H](C(=O)[*:2])N(CCC(F)(F)F)[*:1]; N(2-hydroxyethyl)Ala = C[C@H](NCCO)C(=O)O; X5 = CCCC[C@@H](C(=O)[*:2])N(CC)[*:1]; Hyp = O=C(O)[C@@H]1C[C@@H](O)CN1; Gly(N-CH2CH2OH) = O=C(O)CNCCO; NMeNle = CCCC[C@H](NC)C(=O)O; NEtAla = CCN[C@@H](C)C(=O)O; NMeA = CN[C@@H](C)C(=O)O; Dab = NCC[C@H](N)C(=O)O

T1 sequence (Q9NZQ7 with tags, fused parts or gaps): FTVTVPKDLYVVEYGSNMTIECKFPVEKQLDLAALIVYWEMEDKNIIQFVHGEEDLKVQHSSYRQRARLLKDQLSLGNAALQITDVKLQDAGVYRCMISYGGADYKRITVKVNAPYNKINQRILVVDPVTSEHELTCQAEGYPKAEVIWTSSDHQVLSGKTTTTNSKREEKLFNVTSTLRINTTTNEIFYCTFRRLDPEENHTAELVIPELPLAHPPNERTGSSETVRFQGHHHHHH

For `CCCC[C@H]1C(=O)N[C@@H](CC(C)C)C(=O)N[C@H](C(=O)NCC(N)=O)CSCC(=O)N[C@@H](Cc2ccc(O)cc2)C(=O)N(C)[C@@H](C)C(=O)N[C@@H](CC(N)=O)C(=O)N2CCC[C@H]2C(=O)N[C@@H](Cc2cnc[nH]2)C(=O)N[C@@H](CCC(=O)O)C(=O)N2C[C@H](O)C[C@H]2C(=O)N[C@@H](Cc2c[nH]c3ccccc23)C(=O)N[C@@H](CCN)C(=O)N[C@@H](Cc2c[nH]c3ccccc23)C(=O)N(CC)[C@@H](CCCC)C(=O)N1C` [Example 3023] ({CH2CO}-Y[NMeA]NPHE[Hyp]W[Dab]W[X5][NMeNle]LCG-NH2; thioether N-14), the half-maximal inhibitory concentration (IC50) was 10 to 99 nM.

Turning to `CCCC[C@H]1C(=O)N[C@@H](CC(C)C)C(=O)N[C@H](C(=O)NCC(N)=O)CSCC(=O)N[C@@H](Cc2ccc(O)cc2)C(=O)N(C)[C@@H](C)C(=O)N[C@@H](CC(N)=O)C(=O)N2CCC[C@H]2C(=O)N[C@@H](Cc2cnc[nH]2)C(=O)N[C@@H](CCC(=O)O)C(=O)N2C[C@H](O)C[C@H]2C(=O)N[C@@H](Cc2c[nH]c3ccccc23)C(=O)N[C@@H](CCN)C(=O)N[C@@H](Cc2c[nH]c3ccccc23)C(=O)N(CCO)[C@@H](C)C(=O)N1C` [Example 3033] ({CH2CO}-Y[NMeA]NPHE[Hyp]W[Dab]W[N(2-hydroxyethyl)Ala][NMeNle]LCG-NH2; thioether N-14), the half-maximal inhibitory concentration (IC50) is 100 to 10000 nM.

`CCCC[C@H]1C(=O)N(CC)[C@@H](C)C(=O)N[C@@H](CC(C)C)C(=O)N[C@H](C(=O)NCC(N)=O)CSCC(=O)N[C@@H](Cc2ccc(O)cc2)C(=O)N(C)[C@@H](C)C(=O)N[C@@H](CC(N)=O)C(=O)C2CCC[C@H]2C(=O)N[C@@H](Cc2cnc[nH]2)C(=O)N[C@@H](CCC(=O)O)C(=O)N2C[C@H](O)C[C@H]2C(=O)N[C@@H](Cc2c[nH]c3ccccc23)C(=O)N[C@@H](CCN)C(=O)N[C@@H](Cc2c[nH]c3ccccc23)C(=O)N1C` (stereo partly drawn) [Example 3020] ({CH2CO}-Y[NMeA][X4]HE[Hyp]W[Dab]W[NMeNle][NEtAla]LCG-NH2; thioether N-13) displayed a half-inhibitory concentration (IC50) of 5 to 9.9 nM.

Consider `CCCC[C@H]1C(=O)N(C)[C@@H](CCCC)C(=O)N[C@@H](CC(C)C)C(=O)N[C@H](C(=O)NCC(N)=O)CSCC(=O)N[C@@H](Cc2ccc(O)cc2)C(=O)N(CC(=O)O)CC(=O)N[C@@H](CC(N)=O)C(=O)N2CCC[C@H]2C(=O)N[C@@H](Cc2cnc[nH]2)C(=O)N[C@@H](CCC(=O)O)C(=O)N2C[C@H](O)C[C@H]2C(=O)N[C@@H](Cc2c[nH]c3ccccc23)C(=O)N[C@@H](CCN)C(=O)N[C@@H](Cc2csc3ccccc23)C(=O)N1C` [Example 5003], for which the IC50 was in the range of 10 to 99 nM.

Compound `CCCC[C@H]1C(=O)N(C)[C@@H](CCCC)C(=O)N[C@@H](CC(C)C)C(=O)N[C@H](C(=O)NCC(N)=O)CSCC(=O)N[C@@H](Cc2ccc(O)cc2)C(=O)N(C)[C@@H](C)C(=O)N[C@@H](CC(N)=O)C(=O)N2CCC[C@H]2C(=O)N[C@@H](Cc2cnc[nH]2)C(=O)N[C@@H](CCC(=O)O)C(=O)N(CCO)CC(=O)N[C@@H](Cc2c[nH]c3ccccc23)C(=O)N[C@@H](CCN)C(=O)N[C@@H](Cc2c[nH]c3ccccc23)C(=O)N1C` [Example 3012] ({CH2CO}-Y[NMeA]NPHE[Gly(N-CH2CH2OH)]W[Dab]W[NMeNle][NMeNle]LCG-NH2; thioether N-14) had a half-maximal inhibitory concentration (IC50) of 10 to 99 nM.

`CCCC[C@H]1C(=O)N[C@@H](CC(C)C)C(=O)N[C@H](C(=O)NCC(N)=O)CSCC(=O)N[C@@H](Cc2ccc(O)cc2)C(=O)N(C)[C@@H](C)C(=O)N[C@@H](CC(N)=O)C(=O)N2CCC[C@H]2C(=O)N[C@@H](Cc2cnc[nH]2)C(=O)N[C@@H](CCC(=O)O)C(=O)N2C[C@H](O)C[C@H]2C(=O)N[C@@H](Cc2c[nH]c3ccccc23)C(=O)N[C@@H](CCN)C(=O)N[C@@H](Cc2c[nH]c3ccccc23)C(=O)N(CCC(F)(F)F)[C@@H](C)C(=O)N1C` [Example 3041] ({CH2CO}-Y[NMeA]NPHE[Hyp]W[Dab]W[X8][NMeNle]LCG-NH2; thioether N-14) returned an IC50 of 10 to 99 nM.
